What was measured:
Assay in all cases: Test C preemergence
Type in all cases: in vivo
[1] = system: woolly cupgrass (Eriochloa villosa)
Text: (§1) Seeds of plant species selected from bermudagrass (Cynodon dactylon), Surinam grass (Brachiaria decumbens), cocklebur (Xanthium strumarium), corn (Zea mays), crabgrass (Digitaria sanguinalis), woolly cupgrass (Eriochloa villosa), giant foxtail (Setaria faberii), goosegrass (Eleusine indica), johnsongrass (Sorghum halepense), kochia (Kochia scoparia), lambsquarters (Chenopodium album), morningglory (Ipomoea hederacea), yellow nutsedge (Cyperus esculentus), pigweed (Amaranthus retroflexus), common ragweed (Ambrosia elatior), soybean (Glycine max) and velvetleaf (Abutilon theophrasti) were planted and treated preemergence with test chemicals formulated in a non-phytotoxic solvent mixture which included a surfactant.
(§2) At the same time, plants selected from these crop and weed species and also winter barley (Hordeum vulgare), blackgrass (Alopecurus myosuroides), canary grass (Phalaris minor), chickweed (Stellaria media), downy brome (Bromus tectorum), green foxtail (Setaria viridis), Italian ryegrass (Lolium multiflorum), wheat (Triticum aestivum), wild oat (Avena fatua) and windgrass (Apera spica-venti) were treated with postemergence applications of some of the test chemicals formulated in the same manner. Plants ranged in height from 2 to 18 cm (1- to 4-leaf stage) for postemergence treatments. Plant species in the flooded paddy test consisted of rice (Oryza saliva), smallflower flatsedge (Cyperus difformis), duck salad (Heteranthera limosa) and barnyardgrass (Echinochloa crus-galli) grown to the 2-leaf stage for testing. Treated plants and controls were maintained in a greenhouse for 12 to 14 days, after which time all species were compared to controls and visually evaluated. Plant response ratings, summarized in Table C, are based on a scale of 0 to 100 where 0 is no effect and 100 is complete control. A dash (-) response means no test result.

[2] = system: morningglory (Ipomoea hederacea)
Text: as §1, §2

[3] = system: corn (Zea mays)
Text: as §1, §2

[4] = system: giant foxtail (Setaria faberii)
Text: as §1, §2

[5] = system: soybean (Glycine max)
Text: as §1, §2

[6] = system: Sunflower; conditions: Rate 62 g/ha; scale 0 to 100, 0 no effect, 100 complete control
Text: as §1, §2

[7] = system: crabgrass (Digitaria sanguinalis)
Text: as §1, §2

[8] = system: goosegrass (Eleusine indica)
Text: as §1, §2

[9] = system: lambsquarters (Chenopodium album)
Text: as §1, §2

[10] = system: johnsongrass (Sorghum halepense)
Text: as §1, §2

[11] = system: cocklebur (Xanthium strumarium)
Text: as §1, §2

[12] = system: kochia (Kochia scoparia)
Text: as §1, §2

[13] = system: pigweed (Amaranthus retroflexus)
Text: as §1, §2

[14] = system: velvetleaf (Abutilon theophrasti)
Text: as §1, §2

[15] = system: Nightshade
Text: as §1, §2

[16] = system: yellow nutsedge (Cyperus esculentus)
Text: as §1, §2

[17] = system: Surinam grass (Brachiaria decumbens)
Text: as §1, §2

[18] = system: bermudagrass (Cynodon dactylon)
Text: as §1, §2

[19] = Rate 62 g/ha, scale 0 to 100, 0 no effect, 100 complete control
[20] = preemergence, Rate 31 g/ha, scale 0 to 100
[21] = preemergence, Rate 125 g/ha, scale 0 to 100, 0 no effect, 100 complete control
[22] = Rate 125 g/ha, scale 0 to 100, 0 no effect, 100 complete control

CCC(CC)c1ccn(C2SCN(c3cccc(C(F)(F)F)c3)C2=O)n1 (stereo not shown) [Compound 21]
100: Plant response rating, Crabgrass [7, 21] | Plant response rating, Goosegrass [8, 21] | Plant response rating, Lambsquarters [9, 19] | Plant response rating, Lambsquarters [9, 21] | Plant response rating, Pigweed [13, 21] | Plant response rating, Nightshade [15, 22] | Plant response rating, Bermudagrass [18, 19] | Plant response rating, Bermudagrass [18, 21]
50: Plant response rating, Nutsedge [16, 19]
60: Plant response rating, Sunflower [6] | Plant response rating, Nutsedge [16, 21] | Plant response rating, Bermudagrass [18, 20]
0: Plant response rating, Morningglory [2, 20] | Plant response rating, Foxtail, Giant [4, 20] | Plant response rating, Cocklebur [11, 19] | Plant response rating, Cocklebur [11, 20] | Plant response rating, Cocklebur [11, 21] | Plant response rating, Velvetleaf [14, 19] | Plant response rating, Velvetleaf [14, 20] | Plant response rating, Velvetleaf [14, 21] | Plant response rating, Surinam grass [17, 19] | Plant response rating, Surinam grass [17, 20]
70: Plant response rating, Johnsongrass [10, 19]
20: Plant response rating, Morningglory [2, 19] | Plant response rating, Morningglory [2, 21] | Plant response rating, Corn [3, 19] | Plant response rating, Corn [3, 20] | Plant response rating, Corn [3, 21] | Plant response rating, Nutsedge [16, 20]
40: Plant response rating, Cupgrass, Woolly [1, 20] | Plant response rating, Soybean [5, 19]
30: Plant response rating, Soybean [5, 20] | Plant response rating, Johnsongrass [10, 20] | Plant response rating, Pigweed [13, 20] | Plant response rating, Surinam grass [17, 21]
80: Plant response rating, Cupgrass, Woolly [1, 19] | Plant response rating, Cupgrass, Woolly [1, 21] | Plant response rating, Foxtail, Giant [4, 19] | Plant response rating, Soybean [5, 21] | Plant response rating, Goosegrass [8, 19] | Plant response rating, Goosegrass [8, 20] | Plant response rating, Pigweed [13, 19] | Plant response rating, Nightshade ([15]; Rate 31 g/ha, scale 0 to 100)
90: Plant response rating, Foxtail, Giant [4, 21] | Plant response rating, Crabgrass [7, 19] | Plant response rating, Crabgrass [7, 20] | Plant response rating, Lambsquarters [9, 20] | Plant response rating, Johnsongrass [10, 21] | Plant response rating, Kochia [12, 19] | Plant response rating, Kochia [12, 20] | Plant response rating, Kochia [12, 21] | Plant response rating, Nightshade [15, 19]

COc1cc(N2CCC(n3ccc(C(C)(C)C)n3)C2=O)ccc1C (stereo not shown) [Compound 42]
60: Plant response rating, Pigweed [13, 19]
100: Plant response rating, Cupgrass, Woolly [1, 21] | Plant response rating, Foxtail, Giant [4, 21] | Plant response rating, Crabgrass [7, 21] | Plant response rating, Lambsquarters [9, 19] | Plant response rating, Lambsquarters [9, 21] | Plant response rating, Kochia [12, 21] | Plant response rating, Pigweed [13, 21] | Plant response rating, Nightshade [15, 22]
30: Plant response rating, Foxtail, Giant [4, 20]
90: Plant response rating, Crabgrass [7, 19] | Plant response rating, Surinam grass [17, 21]
0: Plant response rating, Cupgrass, Woolly [1, 20] | Plant response rating, Corn [3, 20] | Plant response rating, Pigweed [13, 20] | Plant response rating, Nightshade ([15]; Rate 31 g/ha, scale 0 to 100) | Plant response rating, Nightshade [15, 19] | Plant response rating, Surinam grass [17, 20]
70: Plant response rating, Surinam grass [17, 19]
20: Plant response rating, Cupgrass, Woolly [1, 19] | Plant response rating, Corn [3, 19] | Plant response rating, Soybean [5, 20] | Plant response rating, Lambsquarters [9, 20] | Plant response rating, Kochia [12, 20]
50: Plant response rating, Foxtail, Giant [4, 19] | Plant response rating, Soybean [5, 19] | Plant response rating, Soybean [5, 21] | Plant response rating, Kochia [12, 19]
40: Plant response rating, Corn [3, 21] | Plant response rating, Crabgrass [7, 20]
